# Laboratory results as given in US12655116B2, “Substituted isophthalic acid diamides” (Bayer Aktiengesellschaft, priority 2020, dated 2026).
# How the values were obtained:
# [1] = test system: ABUTH; assay: Pre-emergence herbicidal action against ABUTH; type: in vivo, Abutilon theophrasti
# Procedure, shortened: (§1)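 Herbicidal effect was assessed 3 weeks after treatment by visual comparison with untreated controls, 100% denoting dead plants. Aqueous WP or EC preparations had been applied at 600 to 800 l/ha with 0.2% wetting agent to the soil covering freshly sown seeds.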
# [2] = test system: ALOMY; assay: Pre-emergence herbicidal action against ALOMY; type: in vivo, Alopecurus myosuroides; conditions: pre-emergence
# Procedure, shortened: as §1
# [3] = test system: AMARE; assay: Pre-emergence herbicidal action against AMARE; type: in vivo, Amaranthus retroflexus
# Procedure, shortened: as §1
# [4] = test system: AVEFA; assay: Pre-emergence herbicidal action against AVEFA; type: in vivo, Avena fatua; conditions: pre-emergence
# Procedure, shortened: as §1
# [5] = test system: ECHCG; assay: Pre-emergence herbicidal action against ECHCG; type: in vivo, Echinochloa crus-galli; conditions: 80 g/ha
# Procedure, shortened: as §1
# [6] = test system: HORMU; assay: Pre-emergence herbicidal action against HORMU; type: in vivo, Hordeum murinum; conditions: 80 g/ha, pre-emergence
# From the text: Seeds of monocotyledonous and dicotyledonous weed plants and crop plants are laid out in sandy loam soil in wood-fiber pots and covered with soil. The compounds of the invention, formulated in the form of wettable powders (WP) or as emulsion concentrates (EC), are then applied to the surface of the covering soil in the form of an aqueous suspension or emulsion at a water application rate equivalent to 600 to 800 l/ha, with addition of 0.2% wetting agent. After the treatment, the pots are placed in a greenhouse and kept under good growth conditions for the trial plants. The damage to the test plants is scored visually after a test period of 3 weeks by comparison with untreated controls (herbicidal activity in percent (%): 100% activity=the plants have died, 0% activity=like control plants). […] The tables below illustrate, in an illustrative manner, the post-emergence herbicidal action of the compounds of the invention, the herbicidal activity being stated in percent.
# [7] = test system: MATIN; assay: Pre-emergence herbicidal action against MATIN; type: in vivo, Matricaria inodora
# Procedure, shortened: as §1
# [8] = test system: POLCO; assay: Pre-emergence herbicidal action against POLCO; type: in vivo, Polygonum convolvulus; conditions: Fallopia convolvulus, 504 h
# Procedure, shortened: as §1
# [9] = test system: SETVI; assay: Pre-emergence herbicidal action against SETVI; type: in vivo, Setaria viridis
# Procedure, shortened: as §1
# [10] = test system: STEME; assay: Pre-emergence herbicidal action against STEME; type: in vivo, Stellaria media
# Procedure, shortened: as §1
# [11] = test system: VIOTR; assay: Pre-emergence herbicidal action against VIOTR; type: in vivo, Viola tricolor
# Procedure, shortened: as §1
# [12] = test system: DIGSA; assay: Pre-emergence herbicidal action against DIGSA; type: in vivo, Digitaria sanguinalis
# Procedure, shortened: as §1
# [13] = test system: ABUTH; assay: Post-emergence herbicidal action against ABUTH; type: in vivo, Abutilon theophrasti; conditions: visual assessment about 3 weeks after treatment vs untreated controls
# Procedure, shortened: (§2)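 Post-emergence greenhouse test; one-leaf stage, 2–3 wk post-sowing, sandy loam. Foliar spray of WP/EC in water, 600–800 l/ha, +0.2% wetting agent. Visual % action at ~3 wk vs untreated (100% = plants dead).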
# [14] = test system: ALOMY; assay: Post-emergence herbicidal action against ALOMY; type: in vivo, Alopecurus myosuroides; conditions: dosage 20 g/ha, visual assessment about 3 weeks after treatment vs untreated controls
# Procedure, shortened: as §2
# [15] = test system: AMARE; assay: Post-emergence herbicidal action against AMARE; type: in vivo, Amaranthus retroflexus; conditions: 20 g/ha, visual assessment about 3 weeks after treatment, 100% = plants have died, 0% = like control plants
# Procedure, shortened: as §2
# [16] = test system: AVEFA; assay: Post-emergence herbicidal action against AVEFA; type: in vivo, Avena fatua; conditions: Avena fatua, 504 h, 20 g/ha, visual assessment about 3 weeks after treatment, 100% = plants have died, 0% = like control plants
# Procedure, shortened: as §2
# [17] = test system: MATIN; assay: Post-emergence herbicidal action against MATIN; type: in vivo, Matricaria inodora
# Procedure, shortened: as §2
# [18] = test system: PHBPU; assay: Post-emergence herbicidal action against PHBPU; type: in vivo, Pharbitis purpurea; conditions: Ipomoea purpurea, 504 h
# Procedure, shortened: as §2
# [19] = test system: SETVI; assay: Post-emergence herbicidal action against SETVI; type: in vivo, Setaria viridis
# Procedure, shortened: as §2
# [20] = test system: STEME; assay: Post-emergence herbicidal action against STEME; type: in vivo, Stellaria media
# Procedure, shortened: as §2
# [21] = test system: VERPE; assay: Post-emergence herbicidal action against VERPE; type: in vivo, Veronica persica; conditions: Veronica persica, 504 h, 20 g/ha
# Procedure, shortened: as §2
# [22] = test system: VIOTR; assay: Post-emergence herbicidal action against VIOTR; type: in vivo, Viola tricolor; conditions: Viola tricolor, 504 h
# Procedure, shortened: as §2
# [23] = test system: DIGSA; assay: Post-emergence herbicidal action against DIGSA; type: in vivo, Digitaria sanguinalis
# Procedure, shortened: as §2
# [24] = test system: LOLRI; assay: Pre-emergence herbicidal action against LOLRI; type: in vivo, Lolium rigidum; conditions: 80 g/ha
# Procedure, shortened: as §1
# [25] = test system: PHBPU; assay: Pre-emergence herbicidal action against PHBPU; type: in vivo, Pharbitis purpurea; conditions: dosage 80 g/ha
# Procedure, shortened: as §1
# [26] = test system: VERPE; assay: Pre-emergence herbicidal action against VERPE; type: in vivo, Veronica persica; conditions: dosage 80 g/ha
# Procedure, shortened: as §1
# [27] = test system: ECHCG; assay: Post-emergence herbicidal action against ECHCG; type: in vivo, Echinochloa crus-galli
# Procedure, shortened: as §2
# [28] = Tripleurospermum inodorum, 504 h, dosage 20 g/ha
# [29] = Setaria viridis, 504 h, dosage 20 g/ha
# [30] = 80 g/ha, scored visually after 3 weeks vs untreated controls (100% = plants have died, 0% = like control plants)
compound,measurement,setting,value
CCNC(=O)c1c(C(F)(F)F)ccc(C(=O)Nc2nnnn2C)c1Br [Example 1-208],pest or weed control at 80 g/ha,"[1]; Abutilon theophrasti, 504 h, 80 g/ha, scored visually after 3 weeks vs untreated controls (100% = plants have died, 0% = like control plants)",100%
same,pest or weed control at 20 g/ha,"[1]; Abutilon theophrasti, 504 h, dosage 20 g/ha, scored visually after 3 weeks vs untreated controls, 100% = plants have died, 0% = like control plants, read-out: Pre-emergence action against ABUTH (herbicidal activity in percent)",100%
same,pest or weed control at 80 g/ha,"[2]; Alopecurus myosuroides, 504 h, 80 g/ha, scored visually after 3 weeks vs untreated controls (100% = plants have died, 0% = like control plants)",100%
same,pest or weed control at 20 g/ha,"[2]; Alopecurus myosuroides, 504 h, 20 g/ha, scored visually after 3 weeks, 100% = plants have died, 0% = like control plants",80%
same,pest or weed control at 20 g/ha,"[3]; Amaranthus retroflexus, 504 h, 20 g/ha, scored visually after 3 weeks vs untreated controls, 100% = plants have died, 0% = like control plants",100%
same,pest or weed control at 80 g/ha,"[3]; Amaranthus retroflexus, 504 h, 80 g/ha, scored visually after 3 weeks vs untreated controls, 100% = plants have died, 0% = like control plants",100%
same,pest or weed control at 80 g/ha,"[4]; Avena fatua, 504 h, 80 g/ha",100%
same,pest or weed control at 20 g/ha,"[4]; Avena fatua, 504 h, 20 g/ha, scored visually after 3 weeks, 100% = plants have died, 0% = like control plants",80%
same,pest or weed control at 80 g/ha,"[5]; Echinochloa crus-galli, 504 h",100%
same,pest or weed control at 80 g/ha,"[6]; Hordeum murinum, 504 h",80%
same,pest or weed control at 20 g/ha,[7]; [28],90%
same,pest or weed control at 80 g/ha,"[7]; Tripleurospermum inodorum, 504 h, dosage 80 g/ha",100%
same,pest or weed control at 20 g/ha,[8]; dosage 20 g/ha,80%
same,pest or weed control at 80 g/ha,[8]; dosage 80 g/ha,90%
same,pest or weed control at 20 g/ha,[9]; [29],100%
same,pest or weed control at 80 g/ha,"[9]; Setaria viridis, 504 h, dosage 80 g/ha",100%
same,pest or weed control at 20 g/ha,"[10]; Stellaria media, 504 h, dosage 20 g/ha",100%
same,pest or weed control at 80 g/ha,"[10]; Stellaria media, 504 h, dosage 80 g/ha",100%
same,pest or weed control at 20 g/ha,"[11]; Viola tricolor, 504 h, dosage 20 g/ha",100%
same,pest or weed control at 80 g/ha,"[11]; Viola tricolor, 504 h, dosage 80 g/ha",100%
same,pest or weed control at 20 g/ha,"[12]; Digitaria sanguinalis, 504 h, dosage 20 g/ha",100%
same,pest or weed control at 80 g/ha,"[12]; Digitaria sanguinalis, 504 h, dosage 80 g/ha",100%
same,pest or weed control at 5 g/ha,"[13]; Abutilon theophrasti, 504 h, dosage 5 g/ha",80%
same,pest or weed control at 20 g/ha,"[13]; Abutilon theophrasti, 504 h, dosage 20 g/ha",90%
same,pest or weed control at 20 g/ha,"[14]; Alopecurus myosuroides, 504 h",80%
same,pest or weed control at 20 g/ha,"[15]; Amaranthus retroflexus, 504 h",100%
same,pest or weed control at 20 g/ha,[16],90%
same,pest or weed control at 20 g/ha,[17]; [28],80%
same,pest or weed control at 5 g/ha,[18]; dosage 5 g/ha,80%
same,pest or weed control at 20 g/ha,[18]; dosage 20 g/ha,90%
same,pest or weed control at 5 g/ha,"[19]; Setaria viridis, 504 h, dosage 5 g/ha",80%
same,pest or weed control at 20 g/ha,[19]; [29],80%
same,pest or weed control at 20 g/ha,"[20]; Stellaria media, 504 h, 20 g/ha",90%
same,pest or weed control at 5 g/ha,"[20]; Stellaria media, 504 h, dosage 5 g/ha",90%
same,pest or weed control at 20 g/ha,[21],80%
same,pest or weed control at 5 g/ha,[22]; 5 g/ha,80%
same,pest or weed control at 20 g/ha,[22]; 20 g/ha,100%
same,pest or weed control at 5 g/ha,"[23]; Digitaria sanguinalis, 504 h, 5 g/ha",80%
same,pest or weed control at 20 g/ha,"[23]; Digitaria sanguinalis, 504 h, 20 g/ha",90%
CCc1c(C(=O)Nc2nnnn2CC)ccc(C(F)(F)F)c1C(=O)NC1CC1 [Example 2-273],Pre-emergence action against ABUTH (herbicidal activity),[1]; [30],90%
same,Pre-emergence action against ABUTH (herbicidal activity in percent),"[1]; dosage 20 g/ha, scored visually after 3 weeks vs untreated controls, 100% = plants have died, 0% = like control plants",90%
same,Pre-emergence action against ALOMY (herbicidal activity),[2]; [30],90%
same,Pre-emergence action against AMARE in %,"[3]; 20 g/ha, scored visually after 3 weeks vs untreated controls, 100% = plants have died, 0% = like control plants",90%
same,Pre-emergence action against AMARE in %,[3]; [30],100%
same,Pre-emergence action against AVEFA in %,[4]; 80 g/ha,90%
same,Pre-emergence action against ECHCG in %,[5],90%
same,Pre-emergence action against HORMU in %,[6],80%
same,Pre-emergence action against LOLRI in %,[24],80%
same,Pre-emergence action against MATIN in %,[7]; dosage 20 g/ha,100%
same,Pre-emergence action against MATIN in %,[7]; dosage 80 g/ha,100%
same,Pre-emergence action against PHBPU in %,[25],90%
same,Pre-emergence action against SETVI in %,[9]; dosage 20 g/ha,80%
same,Pre-emergence action against SETVI in %,[9]; dosage 80 g/ha,90%
same,Pre-emergence action against STEME in %,[10]; dosage 20 g/ha,90%
same,Pre-emergence action against STEME in %,[10]; dosage 80 g/ha,90%
same,Pre-emergence action against VERPE in %,[26],100%
same,Pre-emergence action against VIOTR in %,[11]; dosage 20 g/ha,90%
same,Pre-emergence action against VIOTR in %,[11]; dosage 80 g/ha,100%
same,Pre-emergence action against DIGSA in %,[12]; dosage 20 g/ha,100%
same,Pre-emergence action against DIGSA in %,[12]; dosage 80 g/ha,100%
same,Post-emergence action against ABUTH in %,[13]; dosage 5 g/ha,90%
same,Post-emergence action against ABUTH in %,[13]; dosage 20 g/ha,90%
same,Post-emergence action against ALOMY in %,[14],80%
same,Post-emergence action at 20 g/ha against AMARE in %,[15],90%
same,Post-emergence action against ECHCG in %,[27]; dosage 5 g/ha,80%
same,Post-emergence action against ECHCG in %,[27]; dosage 20 g/ha,90%
same,Post-emergence action against MATIN in %,[17]; dosage 5 g/ha,80%
same,Post-emergence action against MATIN in %,[17]; dosage 20 g/ha,90%
same,Post-emergence action against SETVI in %,[19]; dosage 5 g/ha,80%
same,Post-emergence action against SETVI in %,[19]; dosage 20 g/ha,90%
same,Post-emergence action against STEME in %,[20]; 20 g/ha,90%
same,Post-emergence action against STEME in %,[20]; dosage 5 g/ha,80%
same,Post-emergence action against DIGSA in %,[23]; 5 g/ha,80%
same,Post-emergence action against DIGSA,[23]; 20 g/ha,90%
